Among the test systems are OVCAR-3; SF-539; SNB-19; SK-MEL-28; K562; HCC 2998; HOP-92; SNB-75; MCF7; UACC-62; OVCAR-8; UO-31; OVCAR-5; UACC-257; HL-60; RPMI-8226; HOP-62; HT-29; Malme-3M; COLO 205.
What all share (test): inhibition of tumour cell growth, NCI panel, 48 h

Results on 11 molecules are retold here after ChEMBL document CHEMBL1201862, “PubChem BioAssay data set” (2004).

The structures appear in SMILES notation.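 Protocol summary: plate cells (96-well), add compound at 5 concentrations, incubate 48 h, interpolate endpoints linearly. The concentration for 50% growth inhibition is given as GI50.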 Active and inactive are the calls of the source. Rule as the data show it: active = GI50 up to about 1.1 µM and inactive = higher.

As for `N#C/N=[N+](\[O-])c1ccc(C(=O)O)cc1`, the GI50 in the assay on OVCAR-3 is 15.2 µM (inactive); in the assay on SF-539, 16.3 µM (inactive); in the assay with SNB-19, 16.3 µM (inactive); in the assay with SK-MEL-28, 18.5 µM (inactive); in the assay on K562, 15.4 µM (inactive); with HCC 2998, 25.5 µM (inactive). In addition, the GI50 is 20.4 µM (inactive) with HOP-92; 23.1 µM (inactive) with SNB-75; 19.2 µM (inactive) with MCF7; 17.4 µM (inactive) with UACC-62; 17.6 µM (inactive) in the assay on OVCAR-8; 16.6 µM (inactive) in the assay with UO-31. Further, the GI50 with OVCAR-5 is 20 µM (inactive); with UACC-257, 18 µM (inactive); with HL-60, < 0.01 µM (active); with RPMI-8226, 14.5 µM (inactive); in the assay on HOP-62, 16.6 µM (inactive); in the assay on HT-29 it was 20.3 µM (inactive).
On to `CC(C(=O)NCCNC(=O)CCC(=O)N(C)O)C(=O)NCCNC(=O)CCC(=O)N(C)O`, for which the GI50 is > 100 µM (inactive) with OVCAR-3; > 100 µM (inactive) in the assay on SNB-19; 5.71 µM (inactive) in the assay with SK-MEL-28; > 100 µM (inactive) in the assay with K562; > 100 µM (inactive) in the assay on HCC 2998; > 100 µM (inactive) with HOP-92. Besides, the GI50 in the assay on SNB-75, with MCF7, with Malme-3M, in the assay with UACC-62, with OVCAR-8 and with UO-31 was > 100 µM (inactive) each time. In addition, the GI50 in the assay on OVCAR-5, with UACC-257, in the assay on HL-60, with RPMI-8226, in the assay with HOP-62 and in the assay on HT-29 was > 100 µM (inactive) throughout. The GI50 in the assay on COLO 205 is > 100 µM (inactive).
As to `Cc1ccc(S(=O)(=O)NC(=O)NC(CCCCNC(=N)N)C(=O)O)cc1` (centres undefined), the GI50 in the assay with SF-539, in the assay with SNB-19, in the assay on SK-MEL-28, with K562, in the assay with HOP-92 and with SNB-75 was > 100 µM (inactive) in each case. The GI50 in the assay with MCF7, in the assay on Malme-3M, in the assay on UACC-62, in the assay with OVCAR-8, in the assay with UO-31 and in the assay on UACC-257 was > 100 µM (inactive) each time. Also, the GI50 in the assay with HL-60, with RPMI-8226, with HOP-62 and in the assay on COLO 205 was > 100 µM (inactive) each time.
As to `C=C(NC(=O)C(=C)NC(=O)c1ccc2c(n1)-c1coc(n1)C(=C)NC(=O)C(=C)NC(=O)c1nc(oc1C)C(=C)NC(=O)C(C(C)(C)O)NC(=O)C(=C)NC(=O)c1coc(n1)/C(=C/C)NC(=O)[C@H]([C@@H](C)O)NC(=O)c1csc-2n1)C(N)=O` (some centres undefined), the GI50 in the assay on OVCAR-3, in the assay on SF-539, in the assay with SNB-19, in the assay on SK-MEL-28, with K562 and with HCC 2998 was > 87.5 µM (inactive) each time. Further, the GI50 in the assay on HOP-92, with SNB-75, in the assay with MCF7, with Malme-3M, in the assay on OVCAR-8 and in the assay on UO-31 was > 87.5 µM (inactive) each time. Further, the GI50 in the assay on OVCAR-5 was > 87.5 µM (inactive); in the assay with UACC-257 it was > 87.5 µM (inactive); with HL-60, > 87.5 µM (inactive); in the assay with RPMI-8226, > 87.5 µM (inactive); in the assay with HOP-62 it was 81.5 µM (inactive); in the assay on HT-29, > 8.75 µM (inactive). In addition, the GI50 in the assay with COLO 205 is 72.9 µM (inactive).
Regarding `O=CNCNCCO`, the GI50 in the assay with OVCAR-3, with SNB-19, in the assay on SK-MEL-28, in the assay on K562, with HCC 2998 and with HOP-92 was > 100 µM (inactive) throughout. Moreover, the GI50 in the assay on SNB-75 is > 100 µM (inactive); in the assay on MCF7, > 100 µM (inactive); with Malme-3M, > 100 µM (inactive); with UACC-62, 46.9 µM (inactive); with OVCAR-8, > 100 µM (inactive); in the assay on UO-31, > 100 µM (inactive). Further, the GI50 is > 100 µM (inactive) with OVCAR-5; 20.7 µM (inactive) with HL-60; 31.7 µM (inactive) with RPMI-8226; > 100 µM (inactive) in the assay with HOP-62; 55.1 µM (inactive) in the assay with HT-29.
Regarding `COc1ccc(-c2csc3c2[N+]2(C)C=CC=C2C3N2CCCC2)cc1` (centres undefined), the GI50 in the assay on OVCAR-3 was 13.3 µM (inactive); in the assay on SF-539, 17.7 µM (inactive); in the assay on SNB-19 it was 26.6 µM (inactive); in the assay on K562 it was 6.61 µM (inactive); with HOP-92, 18.7 µM (inactive); in the assay with SNB-75, 4.12 µM (inactive). Moreover, the GI50 in the assay on MCF7 was 29 µM (inactive); with Malme-3M it was 12.2 µM (inactive); in the assay on UACC-62, 15.5 µM (inactive); in the assay on OVCAR-8 it was 17.5 µM (inactive); in the assay on UO-31, 57 µM (inactive); with OVCAR-5 it was 39 µM (inactive). Moreover, the GI50 is 7.4 µM (inactive) in the assay with UACC-257; 3.61 µM (inactive) in the assay with HL-60; 8.34 µM (inactive) in the assay with RPMI-8226; 27.2 µM (inactive) with HOP-62; 16.9 µM (inactive) with HT-29; 13.6 µM (inactive) with COLO 205.
As to `C(=C\Nc1ccc(Oc2ccccc2)cc1)/C=N/c1ccc(Oc2ccccc2)cc1`, the GI50 was 19 µM (inactive) with OVCAR-3; 16.4 µM (inactive) in the assay on SF-539; 17.3 µM (inactive) with SNB-19; 16.6 µM (inactive) in the assay with SK-MEL-28; 22.5 µM (inactive) with K562; 15.9 µM (inactive) with HCC 2998. Moreover, the GI50 with HOP-92 was 24.3 µM (inactive); in the assay on SNB-75, 17.2 µM (inactive); in the assay on MCF7 it was 16.9 µM (inactive); with Malme-3M, 17.1 µM (inactive); with OVCAR-8 it was 20.2 µM (inactive); with UO-31, 18.4 µM (inactive). Moreover, the GI50 was 25 µM (inactive) in the assay on OVCAR-5; 17.1 µM (inactive) in the assay with UACC-257; 23.7 µM (inactive) with HL-60; 21.8 µM (inactive) in the assay on RPMI-8226; 20.7 µM (inactive) in the assay with HOP-62; 15.9 µM (inactive) in the assay with HT-29. Further, the GI50 with COLO 205 was 20 µM (inactive).
`CCOC(=O)C(NC(=O)N(C1=NCC(C)S1)C1CCCCC1)(OC)C(F)(F)F` (centres undefined): the GI50 is 24.3 µM (inactive) with OVCAR-3; 32.3 µM (inactive) in the assay with SF-539; 49.3 µM (inactive) in the assay on SNB-19; 47.2 µM (inactive) in the assay with SK-MEL-28; 56.9 µM (inactive) in the assay with K562; 43.9 µM (inactive) in the assay with HCC 2998. For the same molecule, the GI50 is 46 µM (inactive) in the assay on HOP-92; 31 µM (inactive) with SNB-75; 23.4 µM (inactive) in the assay with MCF7; 45.8 µM (inactive) in the assay on Malme-3M; 32.8 µM (inactive) with UACC-62; 70.5 µM (inactive) with OVCAR-8. Further, the GI50 in the assay on UO-31 was 52 µM (inactive); in the assay with OVCAR-5, > 100 µM (inactive); in the assay with UACC-257 it was 56.5 µM (inactive); in the assay with HL-60 it was 30.2 µM (inactive); in the assay with HOP-62, 15.8 µM (inactive); with HT-29, 20.7 µM (inactive). Also, the GI50 in the assay with COLO 205 was 23.2 µM (inactive).
Take `Cc1ccc(S(=O)(=O)N/N=C2\C=C[C@]3(CC2)C(=O)N(C)c2ccccc23)cc1`: the GI50 in the assay with OVCAR-3, in the assay with SNB-19, in the assay on SK-MEL-28, with K562, with HCC 2998 and with HOP-92 was > 100 µM (inactive) throughout. Moreover, the GI50 with SNB-75, with MCF7, in the assay with UACC-62, in the assay with OVCAR-8, in the assay with UO-31 and in the assay with OVCAR-5 was > 100 µM (inactive) throughout. The GI50 with UACC-257, in the assay with HL-60, in the assay on RPMI-8226, in the assay on HOP-62 and with COLO 205 was > 100 µM (inactive) each time.
Turning to `CCCOC1OC(CS(=O)(=O)O)C(O)C(O)C1O` (centres undefined), the GI50 with OVCAR-3, in the assay with SNB-19, in the assay on SK-MEL-28, in the assay with K562, in the assay on HCC 2998 and in the assay with HOP-92 was > 100 µM (inactive) in each case. For the same molecule, the GI50 with SNB-75, in the assay with MCF7, in the assay on Malme-3M, in the assay with UACC-62, in the assay on OVCAR-8 and in the assay with UO-31 was > 100 µM (inactive) each time. Also, the GI50 in the assay with OVCAR-5, in the assay with UACC-257, in the assay with HL-60, in the assay with RPMI-8226, with HOP-62 and in the assay with HT-29 was > 100 µM (inactive) throughout. Also, the GI50 in the assay on COLO 205 is > 100 µM (inactive).
As for `S=C(S)N1CCN(c2ccccc2)CC1`, the GI50 with OVCAR-3 was > 100 µM (inactive); with SF-539, > 100 µM (inactive); in the assay on SNB-19, > 100 µM (inactive); with SK-MEL-28 it was 45.9 µM (inactive); with K562, 52.6 µM (inactive); in the assay with HCC 2998, 71.3 µM (inactive). Besides, the GI50 in the assay with HOP-92, in the assay with SNB-75, with MCF7, with Malme-3M, in the assay on OVCAR-8 and in the assay on OVCAR-5 was > 100 µM (inactive) each time. The GI50 is > 100 µM (inactive) in the assay on UACC-257; 9.31 µM (inactive) in the assay with HL-60; 27.5 µM (inactive) with RPMI-8226; > 100 µM (inactive) in the assay on HOP-62; > 100 µM (inactive) in the assay with HT-29; 57.5 µM (inactive) in the assay with COLO 205.
